Laboratory results taken from ChEMBL document CHEMBL3856263, “Sesquiterpenes from the roots of Lindera strychnifolia with inhibitory effects on nitric oxide production in RAW 264.7 cells” (Bioorg Med Chem Lett, 2016).

Key:
[1] = Antiinflammatory activity against LPS-induced mouse RAW264.7 cells assessed as inhibition of NO production pretreated for 1 hr followed by LPS stimulation for 24 hrs by Griess assay; format: functional, cell-based
Mus musculus = species on record: Mus musculus; assay: Cytotoxicity against mouse RAW264.7 cells at <25 uM by MTT assay; format: toxicity, cell-based

Row | IC50 [1] | Compound | Activity (Mus musculus)
1 | 15.4 µM | C=C1[C@H]2CC3=C(C)C(=O)O[C@H]3C[C@]2(C)[C@H]2C[C@@H]12 | Non-Toxic
2 | > 25 µM | COC(=O)/C(C)=C1\C(=O)O[C@]2(C)[C@@H]3C[C@@H]3[C@@](C)(CO)[C@H]2[C@@H]1O | Non-Toxic
3 | 9 µM | C=C1Cc2occ(C)c2C2C=C(CC[C@H]1O)C(=O)O2 (stereo not given in full) | Non-Toxic
4 |  | C=C1[C@H]2C[C@H]2[C@]2(C)C[C@]3(O)OC(=O)C(C)=C3[C@H](OC(C)=O)[C@H]12 | Non-Toxic
5 | 21.6 µM | C=C1[C@H]2C[C@H]2[C@]2(C)C[C@@]3(O)OC(=O)C(C)=C3[C@H](OC)[C@H]12 | Non-Toxic
6 | > 25 µM | CC1=C2[C@@H]3OC(=O)[C@@]4(CC/C=C(\C)C[C@@]2(O)OC1=O)O[C@@H]34 | Non-Toxic
7 | > 25 µM | C=C1CC=C[C@@]2(C)C[C@@]3(O)OC(=O)C(C)=C3C[C@H]12 | Non-Toxic
8 | 12.8 µM | CC(=O)O[C@H]1C2=C(C)C(=O)O[C@@]2(O)C[C@@]2(C)[C@@H]3C[C@@H]3[C@](C)(O)[C@@H]12 | Non-Toxic
9 | 9.6 µM | CC1=C2C[C@@H]3[C@@](C)(O)[C@H]4C[C@H]4[C@]3(C)C[C@]2(O)OC1=O | Non-Toxic
10 |  | C=C1[C@H]2C[C@H]2[C@]2(C)C[C@@]3(O)OC(=O)C(C)=C3[C@H](OC(C)=O)[C@H]12 | Non-Toxic
11 |  | CC1=C2C[C@@H]3[C@@](C)(O)[C@H]4C[C@H]4[C@]3(C)C[C@@H]2OC1=O | Non-Toxic
12 | 12.3 µM | C=C1[C@H]2C[C@H]2[C@]2(C)C[C@H]3OC(=O)C(C)=C3[C@H](O)[C@H]12 | Non-Toxic
13 | 6.3 µM | CO[C@@]1(C)[C@H]2C[C@H]2[C@]2(C)C[C@@H]3OC(=O)C(C)=C3C[C@@H]21 | Non-Toxic
14 | 22.5 µM | CC1=C2C(=O)[C@@H]3[C@](C)(O)[C@H]4C[C@H]4[C@@]3(C)C[C@H]2OC1=O | Non-Toxic
15 | 14.6 µM | CC1=C2[C@H](O)[C@@H]3[C@@](C)(O)[C@H]4C[C@H]4[C@]3(C)C[C@]2(O)OC1=O | Non-Toxic
16 | > 25 µM | Cc1coc2c1[C@H]1C=C(CC[C@@H]3O[C@@]3(C)C2)C(=O)O1 [PSEUDONEOLINDERANE] | Non-Toxic

Row | Compound | IC50 [1] | Activity (Mus musculus)
17 | N=C(N)NN [PIMAGEDINE] | 18.4 µM | 
